Test results as given in patent US20120114706A1, “Endorphin Therapy Compositions and Methods of Use Thereof” (priority 2008, published 2012).
Entries after “also recorded” stand apart in the source; their conditions may differ.

How the values were obtained:
Type in all cases: in vivo, rat
[1] = Plasma corticosterone after nanosphere implantation; details: naloxone 1 mg/kg i.p., 12 hours
Description: 2 weeks later, half of the animals were i.p. injected with naloxone (1 mg/kg body weight), which is aμ-opioid receptor antagonist, specifically blocking the effect of β-EP. 12 hours later, animals were anesthetized with Nembutal, and blood was drawn from jugular vein. Plasma corticosterone level was measured with ELISA.
2 months later, animals were anesthetized, and 1 ml of blood was drawn from jugular vein.

MADB106 cells [2] = test: MADB106 lung metastasis / lung tumor retention; details: naloxone 1 mg/kg every 12 hours, 3 times
Description: A method for lung metastasis was adapted using MADB106 breast cancer cells, a NK-sensitive cell line widely used for lung metastasis study. Animals were anesthetized, and 100,000/0.2 ml/rat of MADB106 cells suspended in media were inoculated into jugular vein. After 4˜6 weeks, 70˜80% of inoculated animals developed tumor at the position of lung and/or neck, where the tumor cells were inoculated into the jugular vein.
30 female Fischer rats were implanted with control, cAMP (10 μM) or cAMP (5 μM)+PACAP (5 μM) nanospheres into 3rd ventricle. 2 weeks later, half of the animals were randomly assigned to treatment with Naloxone (1 mg/kg body every 12 hours) for 3 times. After the second injection of Naloxone, animals were anesthetized and inoculated with 100,000/0.2 ml/rat MADB106 cells. 2 months later, animals were sacrificed, and lungs were fixed and sectioned for histology diagnosis.
MADB106 cells, a Fischer 344 rat mammary adenocarcinoma cell line maintained in DMEM containing 10% fetal calf serum, was used. Female Fischer-344 rats were transplanted with BEP cell transplants or control cell transplants at 50 days of age. After about 2 weeks, these PVN cell-transplanted rats were inoculated with MADB106 tumor cells (100,000 cells/0.2 mL/rat) into jugular vein under sodium Nembutal solution (50 mg/kg) anesthesia. […]

MADB106 cells [3] = test: Pharmacologic modification of autonomic influence on immune system and lung metastasis
Description: 48 β-EP implanted (SC) male Fischer rats and 48 control (C) male Fischer rats were divided into 8 groups, treated with saline, Naloxone (10 mg/kg body weight), Metaproterenol (MP, 0.8 mg/kg body weight), or Methyllycaconitine (MLA, 2.5 mg/kg body weight), respectively. Animals were treated with drugs for 8 days. In the second day of drug injection, animals were inoculated with MADB106 cells (100,000/0.2 ml/rat). 24 hours after tumor cell inoculation, blood was collected by orbital puncture. Plasma was collected, and PBMCs were separated for migration assay and NK cytolytic assay. 7 days after tumor inoculation, blood was taken again by orbital puncture. Plasma was collected, and PBMCs were separated for migration assay and T cell cytolytic assay. After 6 weeks, animals were sacrificed, and brains, spleens and blood were frozen. Lungs were fixed in formalin and processed to H&E staining. […] However, 7 days after tumor inoculation, there isn't a clear pattern of T cell cytolytic activity and macrophage migration activity between groups (FIGS. 30B and 30D).
It was hypothesized that the beneficial effect of BEP neuron transplants on immune function is regulated through autonomic nervous system, and that central BEP modulate peripheral immune function by inhibiting the sympathetic activity and activating the parasympathetic activity. Metaproterenol (MET) is an agonist for β-receptors, which are a class of G protein-coupled receptors that are targets of the catecholamines, especially norepinephrine and epinephrine (Dokur et al. (2004) J Neuroimmunol 5:148-57; Page et al. (2008) J Neuroimmunol 193:113-9). Methyllycaconitine (MLA) is a selective antagonist of α7 nicotine acetylcholine receptor (α7 nAChR; Wu et al. (2011) Clin Cancer Res 17:3533-41). By injecting MET and MLA i.p., the stimulation of sympathetic nerves and inhibition of parasympathetic nerves was mimicked. Naloxone, an opiate receptor antagonist, was used to test whether BEP neuronal effects is acted via opiodergic receptor (Boyadjieva et al. (2006) Alcohol Clin Exp Res 30:1761-7). Forty-eight BEP neuron-transplanted Fischer rats and 48 control rats were divided into 8 groups and treated with saline, naloxone (10 mg/kg body weight), MET (0.8 mg/kg body weight), or MLA (2.5 mg/kg body weight) for 8 days (the doses used for these drugs are recognized as effective biological doses). A day after the first injection of these agents, animals were inoculated with MADB106 cells (100,000/0.2 mL/rat). Twenty-four hours after tumor cell inoculation, blood was collected by orbital puncture. Plasma was collected, and peripheral blood mononuclear cells (PBMC) were separated for migration assay and NK cytolytic assay. These animals continued receiving the blocker treatments for 7 days. After 4 weeks they were sacrificed, their lungs were fixed in formalin and processed to H&E staining for determination of cancer pathology. Brain tissues were processed for verification of the site and viability of BEP cell transplantation.

[4] = 24 hours after MADB106 inoculation, naloxone 10, MP/MET 0.8, MLA 2.5 mg/kg or saline

In the case of `C=CCN1CC[C@]23c4c5ccc(O)c4O[C@H]2C(=O)CC[C@@]3(O)[C@H]1C5` [naloxone], the “effect on nanosphere-lowered plasma corticosterone” value [1] is reported as “blocked the effect of nanospheres”, the “effect on nanosphere-reduced lung tumor retention” value (MADB106 cells [2]) is reported as “reversed the effect of nanosphere” and the “PBMC NK cell activity” value (MADB106 cells [3]; [4]) is reported as “moderate or strong inhibitory effect”. The macrophage migration activity (MADB106 cells [3]; [4]) was “moderate or strong inhibitory effect” and the “effect on β-EP elimination of tumor cell lung retention” value (MADB106 cells [3]; β-EP transplanted Fischer rats, naloxone 10, MP/MET 0.8, MLA 2.5 mg/kg for 8 days) was “stopped the effect of β-EP; also recorded: prevented, at various degrees”.
